According to patent US8193246B2, “Lipids and lipid assemblies comprising transfection enhancer elements” (Marina Biotech, Inc., priority 2006, dated 2012):

Columns and labels:
HeLa-Cells [1] = assay: In vitro transfection with liposomes encapsulating carboxyfluorescein, fluorescence microscopy (Example 5); type: cell-based; details: 0.5 mM CF/well, FIG. 7-11
Protocol: HeLa-Cells were obtained from DSMZ (German Collection of Micro Organism and Cell Cultures) and maintained in DMEM. Media were purchased from Gibco-Invitrogen and supplemented with 10% FCS at 37° C. under 5% CO2. The cells were plated at a density of 2×10^4 cells/ml and cultivated in 100 μl medium. After 16 h the media were replaced with Opti-MEM I (Gibco) containing liposomes (L1-L24) with a total amount of 50 to 200 ng Cy3-labelled oligonucleotides or 0.5 mM CF/well. Cell culture dishes were centrifuged for 1 h at 450 g at 37° C., followed by an incubation of 3 h hours at 37° C. under 5% CO2. The transfection mixture was replaced by the above mentioned medium and cells were incubated for further 24-48 h hours. Transfection efficiency and cellular distribution was determined after 4 or 24 hours by light and fluorescence microscopy using objectives with 10× or 40× magnification (Axionvert S 100, Carl Zeiss Inc.).

HeLa-Cells [2] = assay: In vitro transfection with liposomes encapsulating carboxyfluorescein (Example 11); type: cell-based; details: 0.05 mM CF/well, 4 hours, FIG. 17, 18
Protocol: HeLa-Cells were obtained from DSMZ (German Collection of Micro Organism and Cell Cultures) and maintained in DMEM. Media were purchased from Gibco-Invitrogen and supplemented with 10% FCS at 37° C. under 5% CO2. The cells were plated at a density of 4×10^4 cells/ml and cultivated in 100 μl medium. After 16 h the media were replaced with Opti-MEM I (Gibco) containing liposomes (L-46-L-49) with a total amount of 0.05 mM CF/well. Cell culture dishes were incubated for 4 hours at 37° C. under 5% CO2. Transfection efficiency and cellular distribution was determined after 4 hours by fluorescence microscopy with an exposure time of 5 seconds and using the 10/100 fold objective (Axionvert S 100, Carl Zeiss Inc.). Before imaging cells were washed several times (5×) with PBS pH7.4 and analysed directly (incubation time 20 to 30 sec.) in 50 μl PBS pH7.4. As control free CF (0.1 mM) in PBS was added to the cells.

Question: With “carboxyfluorescein [free carboxyfluorescein]” as the substance, how does the “fluorescence signal of carboxyfluorescein in cytosol or nucleus” value (HeLa-Cells [1]) read?
Answer: do not show any fluorescence signals

Question: And the “fluorescence signal of carboxyfluorescein” value (HeLa-Cells [2])?
Answer: no fluorescence signal was observed
